Literature values in patent US20260041141A1, “AEROSOL-GENERATING ARTICLE WITH AN ISOLATED AVERSIVE COMPONENT” (PHILIP MORRIS PRODUCTS S.A., priority 2022, published 2026).
Where a name gives a salt, the structure may show the parent alone.

Conditions: reciprocal of the dilution that still has a bitter taste; quinine hydrochloride reference set at 200,000

| Compound | Bitterness value |
| --- | --- |
| COC1=C[C@@H](C)[C@@H]2C[C@H]3OC(=O)C[C@H]4C(C)=C(OC)C(=O)[C@H]([C@@]2(C)C1=O)[C@@]34C [Quassin] | 13,000,000 |
| C[C@@]12C[C@@H](c3ccoc3)OC(=O)[C@@H]1CC[C@]1(C)[C@H]2[C@@H]2C=C[C@@]1(O)C(=O)O2 [Columbin] | 60,000,000 |
| Amarogentin | 58,000,000 |
| C=C[C@H]1C[N@@]2CC[C@H]1C[C@H]2[C@H](O)c1ccnc2ccc(OC)cc12 [Quinine hydrochloride] | 200,000 |
| CC1=C[C@H]2[C@H]3[C@H](C(C)=C4[C@H]5OC(=O)[C@@H](C)[C@@H]5CC[C@](C)(O)[C@@H]43)[C@@]13[C@@H]2[C@@](C)(O)CC[C@H]1[C@H](C)C(=O)O[C@@H]13 [Absinthin] | 3,000,000 |
